According to US20170050957A1, “4-AMINO-6-(HETEROCYCLIC)PICOLINATES AND 6-AMINO-2-(HETEROCYCLIC)PYRIMIDINE-4-CARBOXYLATES AND THEIR USE AS HERBICIDES” (Dow AgroSciences LLC, priority 2013, published 2017):
Like-named read-outs stand apart in the source and are kept apart here.

Tests used:
[1] = tested on: Key Broadleaf Weed and Crop Species; assay: Post-emergent Test II herbicidal activity (Table 15); format: in vivo; settings: post-emergence, 336 h, 14 d; for pest or weed control at 35 g/ha: 35 g ai/ha; for pest or weed control at 70 g/ha: 70 g ai/ha; for pest or weed control at 140 g/ha: 140 g ai/ha
Procedure, shortened: (§1)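 Visual injury rating (0 = none, 100% = complete kill) made 14 d after treatment, relative to untreated plants. Compounds in an acetone/DMSO/aqueous crop-oil/surfactant spray, at top rate and serial 1/2×-1/16× rates, were applied at 187 L/ha overhead to first-second true leaf plants raised 7-21 d in greenhouse.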

[2] = tested on: Key Grass and Sedge Weeds as well as Grass Crops; assay: Post-emergent Test II herbicidal activity (Table 16); format: in vivo; settings: post-emergence, 336 h, 14 d; for pest or weed control at 35 g/ha: 35 g ai/ha; for pest or weed control at 70 g/ha: 70 g ai/ha; for pest or weed control at 140 g/ha: 140 g ai/ha
Procedure, shortened: as §1

[3] = Abutilon theophrasti, velvetleaf (Abutilon theophrasti), read-out: Visual Growth Reduction (%) 14 Days After Application, ABUTH
[4] = Amaranthus retroflexus, redroot pigweed (Amaranthus retroflexus), read-out: Visual Growth Reduction (%) 14 Days After Application, AMARE
[5] = Brassica napus, oilseed rape, canola (Brassica napus), read-out: Visual Growth Reduction (%) 14 Days After Application, BRSNN
[6] = Chenopodium album, lambsquarters (Chenopodium album), read-out: Visual Growth Reduction (%) 14 Days After Application, CHEAL
[7] = Euphorbia heterophylla, wild poinsettia (Euphorbia heterophylla), read-out: Visual Growth Reduction (%) 14 Days After Application, EPHHL
[8] = Helianthus annuus, sunflower (Helianthus annuus), read-out: Visual Growth Reduction (%) 14 Days After Application, HELAN
[9] = Cyperus esculentus, yellow nutsedge (Cyperus esculentus), read-out: Visual Growth Reduction (%) 14 Days After Application, CYPES
[10] = Echinochloa crus-galli, barnyardgrass (Echinochloa crus-galli), read-out: Visual Growth Reduction (%) 14 Days After Application, ECHCG
[11] = Oryza sativa, rice (Oryza sativa), read-out: Visual Growth Reduction (%) 14 Days After Application, ORYSA
[12] = Setaria faberi, giant foxtail (Setaria faberi), read-out: Visual Growth Reduction (%) 14 Days After Application, SETFA
[13] = Triticum aestivum, wheat, spring (Triticum aestivum), read-out: Visual Growth Reduction (%) 14 Days After Application, TRZAS
[14] = Zea mays, maize, corn (Zea mays), read-out: Visual Growth Reduction (%) 14 Days After Application, ZEAMX

Row | Structure (SMILES) | pest or weed control at 35 g/ha [1, 3] [%] | pest or weed control at 70 g/ha [1, 3] [%] | pest or weed control at 140 g/ha [1, 3] [%] | pest or weed control at 35 g/ha [1, 4] [%] | pest or weed control at 70 g/ha [1, 4] [%] | pest or weed control at 140 g/ha [1, 4] [%] | pest or weed control at 35 g/ha [1, 5] [%] | pest or weed control at 70 g/ha [1, 5] [%] | pest or weed control at 140 g/ha [1, 5] [%] | pest or weed control at 35 g/ha [1, 6] [%] | pest or weed control at 70 g/ha [1, 6] [%] | pest or weed control at 140 g/ha [1, 6] [%] | pest or weed control at 35 g/ha [1, 7] [%] | pest or weed control at 70 g/ha [1, 7] [%] | pest or weed control at 140 g/ha [1, 7] [%] | pest or weed control at 35 g/ha [1, 8] [%] | pest or weed control at 70 g/ha [1, 8] [%] | pest or weed control at 140 g/ha [1, 8] [%] | pest or weed control at 35 g/ha [2, 9] [%] | pest or weed control at 70 g/ha [2, 9] [%] | further results
1 | COC(=O)c1nc(-c2cc3[nH]ccc3cc2F)c(F)c(N)c1Cl [Compound 1.13] | 0 to 29 | 0 to 29 | 0 to 29 | 0 to 29 | 30 to 44 | 30 to 44 | 0 to 29 | 0 to 29 | 30 to 44 | 60 to 74 | 75 to 84 | 85 to 94 | 0 to 29 | 0 to 29 | 30 to 44 | 45 to 59 | 60 to 74 | 60 to 74 | 0 to 29 | 0 to 29 | pest or weed control at 140 g/ha [2, 9]: 0 to 29%; pest or weed control at 35 g/ha [2, 10]: 0 to 29%; pest or weed control at 70 g/ha [2, 10]: 0 to 29%; pest or weed control at 140 g/ha [2, 10]: 0 to 29%; pest or weed control at 35 g/ha [2, 11]: 0 to 29%; pest or weed control at 70 g/ha [2, 11]: 0 to 29%; pest or weed control at 140 g/ha [2, 11]: 0 to 29%; pest or weed control at 35 g/ha [2, 12]: 0 to 29%; pest or weed control at 70 g/ha [2, 12]: 0 to 29%; pest or weed control at 140 g/ha [2, 12]: 0 to 29%; pest or weed control at 35 g/ha [2, 13]: 0 to 29%; pest or weed control at 70 g/ha [2, 13]: 0 to 29%; pest or weed control at 140 g/ha [2, 13]: 0 to 29%; pest or weed control at 35 g/ha [2, 14]: 0 to 29%; pest or weed control at 70 g/ha [2, 14]: 0 to 29%; pest or weed control at 140 g/ha [2, 14]: 0 to 29%
2 | COC(=O)c1nc(-c2ccc(Cl)c3occc23)nc(N)c1OC [Compound 2.21] | 30 to 44 | 60 to 74 | 60 to 74 | 95 to 100 | 95 to 100 | 95 to 100 | 30 to 44 | 30 to 44 | 45 to 59 | 85 to 94 | 85 to 94 | 95 to 100 | 0 to 29 | 0 to 29 | 0 to 29 | 60 to 74 | 75 to 84 | 75 to 84 | 0 to 29 | 0 to 29 | pest or weed control at 140 g/ha [2, 9]: 0 to 29%; pest or weed control at 35 g/ha [2, 11]: 0 to 29%; pest or weed control at 70 g/ha [2, 11]: 0 to 29%; pest or weed control at 140 g/ha [2, 11]: 0 to 29%; pest or weed control at 35 g/ha [2, 12]: 0 to 29%; pest or weed control at 70 g/ha [2, 12]: 0 to 29%; pest or weed control at 140 g/ha [2, 12]: 0 to 29%; pest or weed control at 35 g/ha [2, 13]: 0 to 29%; pest or weed control at 70 g/ha [2, 13]: 0 to 29%; pest or weed control at 140 g/ha [2, 13]: 0 to 29%; pest or weed control at 35 g/ha [2, 14]: 0 to 29%; pest or weed control at 70 g/ha [2, 14]: 0 to 29%; pest or weed control at 140 g/ha [2, 14]: 0 to 29%
